The test relates to P388. The experiment in a line: Cytotoxicity against mouse P388 cells after 48 hrs by MTT assay. In kind it is functional, cell-based. As to conditions: P388, 48 h.

Each structure is given as a SMILES string. In brackets after ≈: the same amount, converted by molar mass.

Compound `C=C1[C@@H](O)C[C@H](OC(C)=O)[C@@]2(C)[C@@H](OC(C)=O)[C@H](OC(=O)c3ccccc3)C3=C(C)C(=O)C[C@@]3(C(C)(C)O)[C@@H](OC(C)=O)[C@H]12` [13-OXO-TAXCHININ A] yielded an IC50 of 10 mg/L (≈ 16.3 µM). Consider `CC(=O)O[C@H]1C(=O)[C@@]2(C)[C@H]([C@H](OC(=O)c3ccccc3)[C@]3(O)C[C@H](OC(=O)[C@H](O)[C@@H](NC(=O)c4ccccc4)c4ccccc4)C(C)=C1C3(C)C)[C@]1(OC(C)=O)CO[C@@H]1C[C@@H]2O` [PACLITAXEL], for which the IC50 is 0.03 mg/L (≈ 0.0351 µM).

In turn, `CCC(C)CCC(=O)N[C@@H](c1ccccc1)[C@@H](O)C(=O)O[C@H]1C[C@@]2(O)[C@@H](OC(=O)c3ccccc3)[C@@H]3[C@]4(OC(C)=O)CO[C@@H]4C[C@H](O)[C@@]3(C)C(=O)[C@H](OC(C)=O)C(=C1C)C2(C)C` (stereo partly drawn) [TAXUSPINANANE A] had an IC50 of 0.01 mg/L (≈ 0.0116 µM).

The values are drawn from ChEMBL document CHEMBL1146407, “Taxuspinananes A and B, new taxoids from Taxus cuspidata var. nana” (J Nat Prod, 1997).
